MIC data for 10 molecules are collected here from US4156724A, “N-acylamino-alpha-arylacetamido cephalosporins and antibacterial compositions and methods containing them” (Sumitomo Chemical Company, Limited, priority 1974, dated 1979).

Converted amounts (≈) assume the structure as drawn.

Holding throughout (format): cell-based
Experiment [1] has as its system Enterobacter aerogeneus No. 75. The experiment in a line: Minimum Inhibitory Concentration, Enterobacter aerogeneus No. 75. To be noted: Enterobacter aerogeneus No. 75; read-out: Minimum Inhibitory Concentration. As for the experimental part: (§1) anti-microbial activity tests were carried out on the compounds obtained in the Examples.
Experiment [2] has as its system Staphylococcus aureus FS 289. Put plainly: Minimum Inhibitory Concentration, Staphylococcus aureus FS 289. Particulars: FS289; Staphylococcus aureus FS 289, strain resistant to penicillin; read-out: Minimum Inhibitory Concentration. On the procedure:
as §1
*Staphylococcus aureus FS 289: strain resistant to penicillin

Experiment [3] concerns Serratia No. 72. Put plainly: Minimum Inhibitory Concentration, Serratia No. 72. On the procedure: as §1
The subject of experiment [4] is Staphylococcus aureus 209 P. Put plainly: Minimum Inhibitory Concentration, Staphylococcus aureus 209 P. Particulars: Staphylococcus aureus 209 P; read-out: Minimum Inhibitory Concentration. As for the experimental part: as §1
Experiment [5] relates to Escherichia coli NIHJ. The experiment in a line: Minimum Inhibitory Concentration, Escherichia coli NIHJ. To be noted: Escherichia coli NIHJ; read-out: Minimum Inhibitory Concentration. As for the experimental part: as §1
The subject of experiment [6] is Klebsiella pneumoniae 602. Put plainly: Minimum Inhibitory Concentration, Klebsiella pneumoniae 602. To be noted: Klebsiella pneumoniae, 602, Klebsiella pneumoniae 602; read-out: Minimum Inhibitory Concentration. As for the experimental part: as §1
Experiment [7] deals with Proteus vulgaris HX 19. The experiment in a line: Minimum Inhibitory Concentration, Proteus vulgaris HX 19. To be noted: HX19; Proteus vulgaris HX 19; read-out: Minimum Inhibitory Concentration. On the procedure: as §1
In experiment [8] the test system is Pseudomonas aeruginosa 104. The experiment in a line: Minimum Inhibitory Concentration, Pseudomonas aeruginosa 104. To be noted: Pseudomonas aeruginosa 104; read-out: Minimum Inhibitory Concentration. As for the experimental part:
as §1

Take `CC(=O)OCC1=C(C(=O)O)N2C(=O)C(NC(=O)C(NC(=O)c3cnc4nc(C)ccc4c3O)c3cccc(N)c3)C2SC1` (centres unmarked) [Example 62]: the MIC in experiment [1] came out at 25 µg/mL (≈ 41.2 µM); in experiment [2], 6.25 µg/mL (≈ 10.3 µM); in experiment [3], 100 µg/mL (≈ 165 µM); in experiment [4], 1.56 µg/mL (≈ 2.57 µM); in experiment [5], 12.5 µg/mL (≈ 20.6 µM); in experiment [6] it was 3.13 µg/mL (≈ 5.16 µM). For the same molecule, the MIC in experiment [7] is 0.39 µg/mL (≈ 0.643 µM); in experiment [8], 6.25 µg/mL (≈ 10.3 µM).

In the case of `Cc1ccc2c(O)c(C(=O)NC(C(=O)NC3C(=O)N4C(C(=O)O)=C(CSc5nnn(C)n5)CSC34)c3cccc(N)c3)cnc2n1` (centres unmarked) [Example 63], the MIC is 12.5 µg/mL (≈ 18.9 µM) in experiment [1]; 6.25 µg/mL (≈ 9.43 µM) in experiment [2]; 50 µg/mL (≈ 75.4 µM) in experiment [3]; 1.56 µg/mL (≈ 2.35 µM) in experiment [4]; 6.25 µg/mL (≈ 9.43 µM) in experiment [5]; 1.56 µg/mL (≈ 2.35 µM) in experiment [6]. The MIC in experiment [7] was 0.1 µg/mL (≈ 0.151 µM); in experiment [8] it was 6.25 µg/mL (≈ 9.43 µM).

Take `Nc1cccc([C@@H](NC(=O)c2cnc3cccnc3c2O)C(=O)NC2C(=O)N3C(C(=O)O)=C(CSc4nncs4)CSC23)c1` (stereo partly drawn) [Example 64, 7-[D-α-(4-Hydroxy-1,5-naphthyridine-3-carbonamido)-α-m-aminophenylacetamido]-3-(1,3,4-thiadiazol-5-yl)thiomethyl-3-cephem-4-carboxylic acid]: the MIC is 3.13 µg/mL (≈ 4.81 µM) in experiment [1]; 6.25 µg/mL (≈ 9.6 µM) in experiment [2]; 12.5 µg/mL (≈ 19.2 µM) in experiment [3]; 1.56 µg/mL (≈ 2.4 µM) in experiment [4]; 1.56 µg/mL (≈ 2.4 µM) in experiment [5]; 3.13 µg/mL (≈ 4.81 µM) in experiment [6]. Also, the MIC in experiment [7] was determined as 0.1 µg/mL (≈ 0.154 µM); in experiment [8] it was 6.25 µg/mL (≈ 9.6 µM).

For the molecule `Nc1cccc(C(NC(=O)c2cnc3cccnc3c2O)C(=O)NC2C(=O)N3C(C(=O)O)=C(CSc4ccc(O)nn4)CSC23)c1` (centres unmarked) [Example 65], the MIC in experiment [1] is 3.13 µg/mL (≈ 4.74 µM); in experiment [2] it was 6.25 µg/mL (≈ 9.46 µM); in experiment [3] it was 12.5 µg/mL (≈ 18.9 µM); in experiment [4], 0.78 µg/mL (≈ 1.18 µM); in experiment [5], 3.13 µg/mL (≈ 4.74 µM); in experiment [6], 3.13 µg/mL (≈ 4.74 µM). Also, the MIC turned out to be 0.2 µg/mL (≈ 0.303 µM) in experiment [7] and 3.13 µg/mL (≈ 4.74 µM) in experiment [8].

Turning to `Nc1cccc(C(NC(=O)c2cnc3cccnc3c2O)C(=O)NC2C(=O)N3C(C(=O)O)=C(CSc4nnc(CO)s4)CSC23)c1` (centres unmarked) [Example 66], the MIC stood at 3.13 µg/mL (≈ 4.6 µM) in experiment [1]; 6.25 µg/mL (≈ 9.18 µM) in experiment [2]; 12.5 µg/mL (≈ 18.4 µM) in experiment [3]; 0.78 µg/mL (≈ 1.15 µM) in experiment [4]; 3.13 µg/mL (≈ 4.6 µM) in experiment [5]; 3.13 µg/mL (≈ 4.6 µM) in experiment [6]. In addition, the MIC in experiment [7] came out at 0.1 µg/mL (≈ 0.147 µM); in experiment [8], 3.13 µg/mL (≈ 4.6 µM).

As for `COc1ccc2ncc(C(=O)NC(C(=O)NC3C(=O)N4C(C(=O)O)=C(CSc5nnnn5C)CSC34)c3cccc(N)c3)c(O)c2n1` (centres unmarked) [Example 67], the MIC was determined as 3.13 µg/mL (≈ 4.61 µM) in experiment [1]; 3.13 µg/mL (≈ 4.61 µM) in experiment [2]; 12.5 µg/mL (≈ 18.4 µM) in experiment [3]; 0.78 µg/mL (≈ 1.15 µM) in experiment [4]; 1.56 µg/mL (≈ 2.3 µM) in experiment [5]; 3.13 µg/mL (≈ 4.61 µM) in experiment [6]. For the same molecule, the figures for the MIC in experiment [7] and in experiment [8] were 0.1 µg/mL (≈ 0.147 µM) and 3.13 µg/mL (≈ 4.61 µM), respectively.

Turning to `Cn1nnnc1SCC1=C(C(=O)O)N2C(=O)C(NC(=O)C(NC(=O)c3cnc4cccnc4c3O)c3cccc(N)c3)C2SC1` (centres unmarked) [Example 68], the MIC in experiment [1] is 3.13 µg/mL (≈ 4.83 µM); in experiment [2], 3.13 µg/mL (≈ 4.83 µM); in experiment [3] it was 12.5 µg/mL (≈ 19.3 µM); in experiment [4] it was 0.78 µg/mL (≈ 1.2 µM); in experiment [5], 1.56 µg/mL (≈ 2.4 µM); in experiment [6], 3.13 µg/mL (≈ 4.83 µM). Moreover, the MIC was found to be 0.1 µg/mL (≈ 0.154 µM) in experiment [7] and 3.13 µg/mL (≈ 4.83 µM) in experiment [8].

With `Nc1cccc(C(NC(=O)c2cnccc2O)C(=O)NC2C(=O)N3C(C(=O)O)=C(CSc4nnc(CO)s4)CSC23)c1` (centres unmarked) [Example 69], the MIC was 12.5 µg/mL (≈ 19.9 µM) in experiment [1]; 6.25 µg/mL (≈ 9.93 µM) in experiment [2]; 50 µg/mL (≈ 79.4 µM) in experiment [3]; 0.39 µg/mL (≈ 0.619 µM) in experiment [4]; 6.25 µg/mL (≈ 9.93 µM) in experiment [5]; 6.25 µg/mL (≈ 9.93 µM) in experiment [6]. The MIC in experiment [7] came to 0.2 µg/mL (≈ 0.318 µM); in experiment [8], 6.25 µg/mL (≈ 9.93 µM).

In the case of `CSc1cnc2c(O)c(C(=O)NC(C(=O)NC3C(=O)N4C(C(=O)O)=C(CSc5nnnn5C)CSC34)c3cccc(N)c3)cnc2n1` (centres unmarked) [Example 70], the MIC in experiment [1] is 6.25 µg/mL (≈ 8.98 µM); in experiment [2], 6.25 µg/mL (≈ 8.98 µM); in experiment [3], 12.5 µg/mL (≈ 18 µM); in experiment [4], 1.56 µg/mL (≈ 2.24 µM); in experiment [5], 3.13 µg/mL (≈ 4.5 µM); in experiment [6] it was 3.13 µg/mL (≈ 4.5 µM). For the same molecule, the figures for the MIC in experiment [7] and in experiment [8] were 0.1 µg/mL (≈ 0.144 µM) and 6.25 µg/mL (≈ 8.98 µM), respectively.

`Cn1nnnc1SCC1=C(C(=O)O)N2C(=O)C(NC(=O)C(NC(=O)c3cnc4cccnc4c3O)c3ccc(N)cc3)C2SC1` (centres unmarked) [Example 71]: the MIC came out at 3.13 µg/mL (≈ 4.83 µM) in experiment [1]; 6.25 µg/mL (≈ 9.63 µM) in experiment [2]; 12.5 µg/mL (≈ 19.3 µM) in experiment [3]; 1.56 µg/mL (≈ 2.4 µM) in experiment [4]; 1.56 µg/mL (≈ 2.4 µM) in experiment [5]; 3.13 µg/mL (≈ 4.83 µM) in experiment [6]. The figures for the MIC in experiment [7] and in experiment [8] were 0.1 µg/mL (≈ 0.154 µM) and 3.13 µg/mL (≈ 4.83 µM), respectively.
